Measurements taken from paper PMC6222422, “Synthesis and Biological Evaluation of Novel Indole-Derived Thioureas” (Molecules : A Journal of Synthetic Chemistry and Natural …, 2018).
Read-outs that look alike come from different tables or passages of the source.

What was measured:
[1] = tested on: HIV-1 N119 (Y181C mutant); test: microbe, parasite or virus in culture; format: cell-based, Human Immunodeficiency Virus type-1; conditions: read-out: EC50 N119
[2] = tested on: HIV-1 EFV^R (K103R + V179D + P225H mutant); test: microbe, parasite or virus in culture; format: cell-based, Human Immunodeficiency Virus type-1; conditions: read-out: EC50 EFV^R
[3] = tested on: HIV-1; conditions: read-out: EC50 HIV-1
[4] = tested on: HIV-1 AZT^R strain (67N, 70R, 215F, 219Q); test: microbe, parasite or virus in culture; format: cell-based, Human Immunodeficiency Virus type-1; conditions: read-out: EC50 AZT^R
[5] = tested on: HIV-1 MDR strain (74V, 41L, 106A, 215Y); test: microbe, parasite or virus in culture; format: cell-based, Human Immunodeficiency Virus type-1; conditions: read-out: EC50 MDR
[6] = tested on: HIV-1 A17 (K103N + Y181C mutant); test: microbe, parasite or virus in culture; format: cell-based, Human Immunodeficiency Virus type-1; conditions: read-out: EC50 A17
[7] = tested on: MT-4 cells
[8] = tested on: cell lines derived from human haematological tumours; test: Cytotoxicity against cell lines derived from human haematological tumours, MTT; format: cell-based; conditions: CCRF-CEM, WIL-2NS, CCRF-SB, read-out: CC50 range over cell lines derived from human haematological tumours
Experimental: Cell lines derived from human haematological tumours [CD4+ human acute T-lymphoblastic leukaemia (CCRF-CEM), human splenic B-lymphoblastoid cells (WIL-2NS), human acute B-lymphoblastic leukaemia (CCRF-SB)] were seeded at an initial density of 1 × 10^5 cells/mL in 96 well plates in RPMI-1640 medium supplemented with 10% foetal calf serum (FCS), 100 units/mL penicillin G and 100 μg/mL streptomycin. Cell viability was determined after 96 h at 37 °C by the MTT method. All cell cultures were then incubated at 37 °C in a humidified, 5% CO2 atmosphere, in the absence or presence of serial dilutions of test compounds in culture medium. Before dilutions, compounds were dissolved in DMSO at 100 mM.

[9] = tested on: YFV; test: microbe, parasite or virus in culture; format: cell-based; conditions: Yellow fever virus, BHK, read-out: YFV EC50
[10] = tested on: CV-B5; test: microbe, parasite or virus in culture; format: cell-based, coxsackievirus B5; conditions: Enterovirus B, CVB5, Vero 76, read-out: CV-B5 EC50
[11] = tested on: VSV; test: microbe, parasite or virus in culture; format: cell-based; conditions: Vesicular stomatitis virus, Vero 76, read-out: VSV EC50
[12] = tested on: Reo-1; test: microbe, parasite or virus in culture; format: cell-based, reovirus type-1; conditions: Reovirus sp., BHK, read-out: Reo-1 EC50
[13] = tested on: CCRF-SB; test: Cytotoxicity against leukaemia/lymphoma cell lines, MTT; conditions: Homo sapiens, 96 h, read-out: CC50 CCRF-SB
[14] = in vitro; conditions: human
[15] = tested on: HSV-1; test: microbe, parasite or virus in culture; format: cell-based, human herpes 1; conditions: Human alphaherpesvirus 1, Vero 76, read-out: HSV-1 EC50
[16] = tested on: WIL-2NS; test: Cytotoxicity against leukaemia/lymphoma cell lines, MTT; conditions: Homo sapiens, WIL2-NS, 96 h, read-out: CC50 WIL-2NS
[17] = tested on: HIV-1; test: microbe, parasite or virus in culture; conditions: Human immunodeficiency virus 1, MT4, read-out: HIV-1 EC50
[18] = in vitro; conditions: African green monkey (Cercopithecus aethiops)
[19] = tested on: Sb-1; test: microbe, parasite or virus in culture; format: cell-based, poliovirus type-1; conditions: Enterovirus C, Vero 76, read-out: Sb-1 EC50
[20] = tested on: VV; test: microbe, parasite or virus in culture; format: cell-based; conditions: Orthopoxvirus vaccinia, Vero 76, read-out: VV EC50
[21] = in vitro; conditions: cattle (Bos taurus)
[22] = tested on: CCRF-CEM; test: Cytotoxicity against leukaemia/lymphoma cell lines, MTT; conditions: Homo sapiens, 96 h, read-out: CC50 CCRF-CEM
[23] = in vitro; conditions: Syrian hamster (Mesocricetus auratus)
[24] = tested on: RSV; test: microbe, parasite or virus in culture; format: cell-based, human respiratory syncytial virus; conditions: human respiratory syncytial virus, Vero 76, read-out: RSV EC50
[25] = tested on: BVDV; test: microbe, parasite or virus in culture; format: cell-based, bovine viral diarrhoea virus; conditions: Bovine viral diarrhea virus isolates and strains, MDBK, in Bos taurus, read-out: BVDV EC50

Structure (SMILES): Cc1cn([C@H]2C[C@H](N=[N+]=[N-])[C@@H](CO)O2)c(=O)[nH]c1=O [AZT]
- EC50 [1]: 0.025 ± 0.004 µM
- EC50 [2]: 0.02 ± 0.001 µM
- EC50 [3]: 0.022 ± 0.004 µM
- EC50 [4]: 0.35 ± 0.04 µM
- EC50 [5]: 0.08 ± 0.006 µM
- EC50 [6]: 0.01 ± 0.001 µM
- CC50 [7]: 45 µM

Structure (SMILES): S=C(NCCc1c[nH]c2ccccc12)Nc1ccc(I)cc1 [Compound 21, 1-(2-(1H-Indol-3-yl)ethyl)-3-(4-iodophenyl)thiourea]
- CC50 [8]: 5 to 12 µM
- EC50 [9]: > 11 µM
- EC50 [10]: > 11 µM
- EC50 [11]: > 11 µM
- EC50 [12]: > 11 µM
- CC50 [13]: 12 ± 1.6 µM
- CC50 [14]: 2.4 ± 0.2 µM
- EC50 [15]: > 11 µM
- CC50 [16]: 5.8 ± 1 µM
- EC50 [17]: > 2.4 µM
- CC50 [18]: 11 µM
- melting point: 162 to 165 °C
- EC50 [19]: > 11 µM
- EC50 [20]: > 11 µM
- CC50 [21]: > 100 µM
- CC50 [22]: 5 ± 0.8 µM
- CC50 [23]: 11 µM
- EC50 [24]: > 11 µM
- EC50 [25]: > 100 µM

Structure (SMILES): COc1cccc2c1C(=O)c1c(O)c3c(c(O)c1C2=O)C[C@@](O)(C(=O)CO)C[C@@H]3O[C@H]1C[C@H](N)[C@H](O)[C@H](C)O1 [Doxorubicin, reference compound]
- CC50 [13]: 0.03 ± 0.003 µM
- CC50 [16]: 0.02 ± 0.003 µM
- CC50 [22]: 0.02 ± 0.002 µM
